Laboratory results from patent US12571052B2, “Immunomodulatory RNA” (THE TRUSTEES OF THE UNIVERSITY OF PENNSYLVANIA, priority 2017, dated 2026).
“Also recorded” adds a separate entry of the source.

T1: recombinant RIG-I (Homo sapiens, UniProt O95786)
T1 sequence (O95786 1-925): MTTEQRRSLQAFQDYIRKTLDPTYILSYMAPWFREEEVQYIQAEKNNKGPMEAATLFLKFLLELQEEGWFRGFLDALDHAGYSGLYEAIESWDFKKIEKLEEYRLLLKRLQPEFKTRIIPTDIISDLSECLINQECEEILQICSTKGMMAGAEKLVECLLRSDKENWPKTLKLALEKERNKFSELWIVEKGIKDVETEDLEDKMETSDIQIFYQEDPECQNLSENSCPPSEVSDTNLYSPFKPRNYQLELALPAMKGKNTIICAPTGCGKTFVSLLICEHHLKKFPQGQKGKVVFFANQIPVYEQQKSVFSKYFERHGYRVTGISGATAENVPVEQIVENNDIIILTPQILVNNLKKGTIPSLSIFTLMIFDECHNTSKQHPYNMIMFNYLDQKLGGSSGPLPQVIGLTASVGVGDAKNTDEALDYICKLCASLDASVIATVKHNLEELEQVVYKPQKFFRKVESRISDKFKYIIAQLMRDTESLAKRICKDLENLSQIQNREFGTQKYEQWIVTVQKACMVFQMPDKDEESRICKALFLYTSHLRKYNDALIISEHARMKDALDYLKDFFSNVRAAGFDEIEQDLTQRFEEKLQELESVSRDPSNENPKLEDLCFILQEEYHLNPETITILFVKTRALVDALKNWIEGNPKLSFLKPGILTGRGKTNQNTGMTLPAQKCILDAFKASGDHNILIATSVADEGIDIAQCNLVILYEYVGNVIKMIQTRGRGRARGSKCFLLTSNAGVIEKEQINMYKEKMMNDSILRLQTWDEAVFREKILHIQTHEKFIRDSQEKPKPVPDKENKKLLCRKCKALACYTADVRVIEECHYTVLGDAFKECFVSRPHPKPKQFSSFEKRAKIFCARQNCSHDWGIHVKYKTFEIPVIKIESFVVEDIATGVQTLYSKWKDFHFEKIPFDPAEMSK

B1: SRP9: Recombinant SRP9 protein, GST tag cleaved with TEV protease (protein, UniProt P49458 2-86, looked up)
Signal recognition particle 9 …: PQYQTWEEFSRAAEKLYLADPMKARVVLKYRHSDGNLCVKVTDDLVCLVYKTDQAQDVKKIEKFHSQLMRLMVAKEARNVTMETE

Assays:
[1] = test system: B16-F10 tumor cells; assay: B16-F10/MEF co-implantation, tumor growth and survival under checkpoint blockade; type: in vivo, C57BL/6 mice; settings: BLZ945 every 2 days for 2 weeks, anti-CTLA4 or anti-CTLA4 and anti-PD1, tumors with unshielded 7SL
Procedure: Wild type (WT) C57BL/6 mice were injected with 5×10^4 B16-F10 tumor cells subcutaneously in the flank with 5×10^4 MYC activated mouse embryonic fibroblasts (MEFs) or MYC activated MEFs co-expressing SRP9/14. MYC activation is inducible with 4-OHT and results in the secretion of exosomes containing unshielded 7SL1 RNA, while co-expression of SRP9/14 ensures the 7SL1 RNA remains relatively shielded, allowing measurement of the stimulatory capacity specifically of the unshielded form (Nabet B Y, et al. Cell. 2017; 170 (2): 352-366.e13). Mice were subsequently treated with the anti-CTLA-4 or anti-PD-1 antibody (or not), and then tumor growth was monitored by caliper. Endpoint criterion was considered a tumor measurement of 1.5 cm in any direction.
Tumors were implanted as described in FIGS. 25A-25B and treated with CSF1R inhibitor BLZ945 (Novartis) every 2 days for 2 weeks starting at day 0 to prevent M2 polarization of infiltrating myeloid cells. Mice were additionally treated with anti-CTLA4 (FIG. 27A) or anti-CTLA4 and anti-PD1 (FIGS. 27B and 27C) on days 5, 8, and 11. Tumor growth was monitored by caliper.

[2] = test system: B16-F10 tumor cells; assay: B16-F10/MEF co-implantation, tumor immune populations by flow cytometry; type: in vivo, C57BL/6 mice
Procedure: Mice were implanted with tumors as described FIGS. 25A-25B. Tumors were harvested 13 days later and assessed for infiltration of macrophages or myeloid derived suppressor cells (MDSCs). Macrophages are considered Lin−, F4/80+, and CD11b+ cells. MDSCs are considered Lin−, F4/80−, CD11c−, CD11b+, and Ly6C+ cells. Tumors were treated with anti-CTLA4 blocking antibody (FIG. 26D) as described in FIGS. 25A and 25B, and tumors were harvested at d15 to measure M2 polarization of macrophages as marked by CD206.
Furthermore, mice were implanted with the same tumors and subsequently treated with the CSF1R inhibitor BLZ945. Polarization of macrophages and frequency of CD103+DCs were tested.
In addition, mice were implanted with tumors and treated with anti-CTLA4+/−CSF1Ri BLZ945. Tumors were harvested 13 days later and immune populations were assessed using an unbiased clustering of flow cytometry data.
Mice were implanted with B16-F10 tumor cells mixed 1:1 with MEFs or MEFs co-expressing SRP9/14 (FIG. 35B). Tumors were harvested 2 weeks post-injection and analyzed for immune cell populations. Unshielded RN7SL1 increased the frequency of dendritic cells, the percentage of CD103+ dendritic cells, the percentage of CD69+CD8+ T cells, and the percentage of PD1+CD8+ T cells in tumors (FIG. 35C). […] Without wishing to be bound by theory, a CSF1R inhibitor blocks M2 polarization and may synergize with unshielded RN7SL1.

[3] = test system: pancreatic ductal adenocarcinoma (PDA) tumor cells; assay: PDA/MEF co-injection, tumor growth under ICB therapy; type: in vivo, mice; settings: BLZ945 with unshielded 7SL RNA, anti-CTLA4 and anti-PD1
Procedure: CSF1R inhibition in combination with unshielded 7SL RNA sensitizes PDA tumors to ICB therapy (FIGS. 28A-28B). 1×10^5 pancreatic ductal adenocarcinoma (PDA) tumor cells were co-injected with 1×10^5 MEFs (“myc-ER”) or MEFs co-expressing SRP9/14 (“myc-ER/SRP”) treated with 4OHT or EtOH. Mice were then treated with a combination of anti-CTLA4 and anti-PD1 antibodies (FIG. 28A) or a triple combination of anti-CTLA4, anti-PD1, and BLZ945 (FIG. 28B) using treatment schedules outlined in the study shown in FIGS. 27A-27C. Tumor growth was monitored by caliper.

[4] = target: T1, recombinant RIG-I; assay: RIG-I ATPase assay (ATP hydrolysis); type: biochemical
Procedure: RIG-I ATPase Assays. RIG-I ATPase assays were performed as previously described (Devarkar et al. (2016) Proc. Natl. Acad. Sci. 113, 596-601). In brief, increasing amounts of RNA (10-60 nM) were added to a constant quantity of RIG-I (5 nM) in the presence of 1 mM ATP. ATP hydrolysis was measured with the EnzChek Phosphate Assay Kit (ThermoFisher) after 60-90 minutes at 37° C. ATP hydrolysis was then measured by absorbance of 360 nm compared to background. A 19-mer 5′triphosphate dsRNA (Invivogen) and DVG396 were used as positive controls and a 19-mer 5′OH dsRNA (Invivogen) and an in vitro transcribed 300 bp ssRNA stretch of GAPDH (GAPDH300) were used as negative controls.

ATP hydrolysis by recombinant RIG-I after addition of SRP9 ([4]; SRP9 added to DVG396 or unrelated 5'ppp or 5'OH control RNAs) | Molecule | response to checkpoint blockade with CSF1R inhibition [1] | response to checkpoint blockade with CSF1R inhibition ([1]; listed as small molecule inhibitor of CSF1R) | activated CD4+ T cells in tumors ([2]; anti-CTLA4 +/- CSF1Ri, high unshielded 7SL, 13 days) | frequency of M2 macrophages in the tumor ([2]; high levels of unshielded 7SL RNA) | infiltration of cross-presenting CD103+ DCs ([2]; high levels of unshielded 7SL RNA, CSF1R inhibition) | sensitization of PDA tumors to ICB therapy [3] | ATP hydrolysis by recombinant RIG-I after addition of SRP9 ([4]; SRP9 added to in vitro transcribed RN7SL1)
– | CNC(=O)c1cc(Oc2ccc3nc(N[C@@H]4CCCC[C@H]4O)sc3c2)ccn1 [BLZ945] | allows tumors with high levels of unshielded 7SL to respond more robustly to checkpoint blockade; also recorded: enhanced the anti-tumor activity of an anti-PD1 antibody and an anti-CTLA-4 antibody | led to improved response in tumors with high levels of unshielded 7SL1 | markedly increased | decreased the frequency of M2 macrophages found in the tumor | improving the infiltration of cross-presenting CD103+DCs | sensitizes PDA tumors to anti-PD-1 and anti-CTLA-4 antibody therapies | –
did not influence | B1 | – | – | – | – | – | – | partially inhibited ATP hydrolysis by recombinant RIG-I
